Measurements published in patent US9499590B2, “Antibodies against and methods for producing vaccines for respiratory syncytial virus” (MEDIMMUNE, LLC, priority 2009, dated 2016).
“And” between values parts separate entries of the source, which are not always exact repeats. Equal entries are not always repeated.

B1: Numax ™: enhanced potency RSV-specific monoclonal antibody derived by in vitro affinity maturation of palivizumab (antibody, listed as Chimaera sp., V domains shown)
VH: QVTLRESGPALVKPTQTLTLTCTFSGFSLSTAGMSVGWIRQPPGKALEWLADIWWDDKKHYNPSLKDRLTISKDTSKNQVVLKVTNMDPADTATYYCARDMIFNFYFDVWGQGTTVTVSS
VL: DIQMTQSPSTLSASVGDRVTITCSASSRVGYMHWYQQKPGKAPKLLIYDTFFLDSGVPSRFSGSGSGTEFTLTISSLQPDDFATYYCFQGSGYPFTFGGGTKVEIK
modifications: (1)..(120) Humanized VH domain antibody sequence; (1)..(106) Humanized VL domain antibody sequence

How the values were obtained:
Numax™ = assay: Biacore kinetic analysis of F peptides on captured Numax™; format: binding; conditions: F peptide 100 nM over captured Numax, HBS-EP
Method: All studies were performed using Sensor Chip CM5 (Biacore AB, Uppsala, Sweden) which contains a carboxymethyl (CM) dextran matrix and a Biacore®3000 surface plasmon resonance (SPR) biosensor (Biacore AB, Uppsala, Sweden).
Numax™ was captured via a high-affinity interaction between the Fc portion of Numax™ and a goat anti-human IgG(Fc) (KPL, Inc., Gaithersburg, Md.). Goat anti-human IgG(Fc) was covalently attached to the CM dextran matrix using amine coupling chemistry. Two anti-human IgG(Fc)-specific surfaces were created. Numax™ was diluted to 10.9 μg/mL with HBS-EP and flowed for 1 min. across one of the anti-human IgG (Fc) surfaces at a flow rate of 5 μL/min. The other anti-human IgG(Fc) surface was used as a reference surface. F peptide was prepared by dilution in HBS-EP (0.01 M Hepes pH 7.4, 0.15 M NaCl, 3 mM EDTA, 0.005% surfactant P20) to a final concentration of 100 nM. F peptide was injected for 1 min. in a serial-flow manner across the reference surface and the Numax™-specific surface. Dissociation of bound F peptide was monitored for 2 min in the presence of HBS-EP. After this dissociation period, Numax™ and F peptide were removed with a 30-sec injection of 10 mM glycine pH 1.7 (Biacore AB, Uppsala, Sweden). Because of the removal of Numax™, it was necessary to create a new Numax™-specific surface prior to the injection of each F peptide.

MEDI-524 Fab = MEDI-524 Fab (Homo sapiens, UniProt P01834+P01857); assay: Isothermal titration calorimetry (ITC) of F peptides with MEDI-524 Fab; format: binding; conditions: 18° C., 25 mM His, pH 6.07
Text: Isothermal Titration calorimetry assays (ITC) have been described (see, for example, Heerklotz H et al., Biophysical Journal, May 1999). Molecular interactions are defined by stoichiometry and a few thermodynamic parameters. All binding reactions are associated with the absorption or generation of heat. Therefore calorimetry is emerging as a premier tool for the characterisation of interactions of biological macromolecules. ITC is the only method that measures equilibrium constants, enthalpy and entropy in one single experiment. If the experiment is performed at different temperatures the important parameter, the heat capacity change, can be determined. ITC has become a standard method for investigating the binding of ligands to receptor molecules. Accordingly, ligands are mixed with receptors, and the subsequent heats of incorporation (or binding) are measured.
To obtain binding constants for MEDI-524 Mab and MEDI-524 Fab fragments with F peptides constructed from F protein sequences, ITC was performed.
For this set of experiments, […] (1.16 μM-148.4 KDa) of MEDI-524 Mab and 0.088 mg/mL (1.88 μM-46.3 KDa) of MEDI-524 Fab, both in 25 mM His, pH 6.07 were used. On the other hand, 250 μl of lmg/mL of the different peptides dissolved in H2O, were provided by ABC. The peptides were then diluted into the appropriate volume of buffer to give a final concentration of 50 μM. The ITC experiments were run at 18° C. with the macromolecule (Mab or Fab) in the cell, by doing ˜26 injections of 10 μL of peptides, spaced 360 sec with constant stirring. The data fitting was accomplished by subtracting the average value of the few last injections as the buffer and unspecific heat of dilution contributions. […] A note apart is the fact that the observed binding capacity (N) increases with the length of the peptide, indicating possibly an extra conformational factor in the binding event. The entropic contribution: For the peptides SEQ ID NOs.24 and 26, the entropic factor seems to be similar; the extra amino acids at the end of the N-terminal seem not to affect greatly the binding parameters. On the other hand, the elongation at the C-terminal seems to decrease slightly the binding enthalpy, the binding constant, as well as the entropic factor. The binding capacity seems to be increased in the cases where the 30-mer peptides were used (SEQ ID Nos. 25 and 26), when compare to the SEQ ID NO.24 peptide, possibly due to the longer extent of the whole peptides. The binding constant seems to be smaller (weaker) for both 30-mer peptides respect to the 26-mer.

[1] = test system: RSV monoclonal antibody resistant mutants (MARMs); assay: Microneutralization assay of RSV monoclonal antibody resistant mutants (MARMs); format: cell-based, respiratory syncytial virus
Method: Neutralization assays have also been described (see, for example, Beller et al., 1989, J Virol 63: 2941-2950, which is incorporated herein by reference in its entirety). Briefly RSV is incubated in the presence of serial dilutions of the agent(s) to be tested (e.g., F peptide) for an appropriate period of time. The mixtures of virus-agent(s) are then transferred to cell monolayers and incubated for an appropriate period of time. Cells are subsequently examined microscopically for cytopathology. Microscopic observations can be confirmed by staining with a glutaraldehyde-crystal violet solution. Neutralization can be expressed as the reciprocal of the highest agent dilution which inhibited more then 95% of the viral cytopathic effect present in the control sample (RSV and cells alone)
(§1) Hep-2 cells were infected in 24 well plates with RSV (in some cases, the B9320 RSV strain) in the presence of an anti-RSV monoclonal antibody, such as, for instance, Synagis® (palivizumab) and/or Numax™ (motavizumab) or MEDI-524. The virus was passaged two to three more times in the continued presence of the monoclonal antibody. […] The resulting plaques were purified two times in the presence of the monoclonal antibody. The virus was expanded to produce virus stock in either the presence or absence of the monoclonal antibody. Analysis of susceptibility of the viral mutants to neutralization by Synagis® (palivizumab) and Numax™ (motavizumab) was performed by a microneutralization assay and/or IFA. Finally, the sequence of the mutant F protein was determined by standard methods. […] Antibody contact with residues 262, 268 and 272 appear important.

RSV B9320 strain mutants = assay: Microneutralization assay of RSV B9320 strain F protein mutants; format: cell-based, respiratory syncytial virus
Text: as §1

RSV F protein = assay: Biacore kinetic analysis, Numax reference standard; format: binding, respiratory syncytial virus
Text: BIAcore analysis can measure the kinetic interactions of anti-RSV antibodies with RSV F peptides by surface plasmon resonance using a BIAcore 1000, 2000, or 3000 instrument (Biacore, Uppsala, Sweden). Purified recombinant, C-terminally truncated F protein was covalently coupled to a (1-ethyl-3-[3-dimethylaminopropyl]carbodiimide hydrochloride)/N-hydroxysuccinimide-activated CM5 sensor chip at a low protein density (see Johnsson et al. (1991) Anal. Biochem. 198, 268-277). The unreacted active ester groups were blocked with 1 M ethanolamine. For use as a reference, when the BIAcore 2000 or 3000 instrument was used, a blank surface, containing no antigen, was prepared under identical immobilization conditions. To minimize binding variations caused by different lots of F proteins, most of the antibodies were measured against the same lot of F protein. In several cases when different lots of F proteins were used, their binding to an anti-RSV antibody was used as a reference to make sure that these lots had similar binding characteristics to the lot that is used mainly. A serial 2-fold dilution series of purified antibodies, ranging from 0.2 to 100 nm in HBS/Tween 20 buffer (BIAcore), was injected over the F-protein and reference cell surfaces, which were connected in series. In each measurement, the residual antibody was removed from the sensor chip by a brief pulse of 100 mM HCl. The binding curves were globally fitted to a 1:1 Langmuir binding model using the BIAevaluation program. This algorithm calculates both kon and koff. The apparent equilibrium dissociation constant, Kd, was deduced as the ratio of the two rate constants, koff/kon.

[2] = K272E, or double mutation N262Y + K272Q
[3] = MARM 45, K272Q, selection Numax
[4] = MARM 49-B12, K272N, selection Numax
[5] = MARM 63-B6, N268L + K272I, selection Numax
[6] = MARM 63-H2, K272I, selection Numax
[7] = MARM 65-B10, N262Y + K272Q, selection Numax
[8] = MARM 69-C8, K272E, selection Numax
[9] = MARM #10, K272E + N276Y, selection A4b4
[10] = MARM #13, N262K + K272Q, selection Synagis then A4b4
[11] = MARM B1, K272N, selection Synagis
[12] = MARM B2, K272M, selection Synagis
[13] = MARM B7, K272T, selection Synagis
[14] = MARM B9, K272Q, selection Synagis
[15] = MARM NuMARM3, K272E, selection Numax
[16] = all other mutations indicated at position 272
[17] = K272N, K272Q or K272I, or double N268L + K272I

Sequence of Numax™ (as listed by the source, one chain of several): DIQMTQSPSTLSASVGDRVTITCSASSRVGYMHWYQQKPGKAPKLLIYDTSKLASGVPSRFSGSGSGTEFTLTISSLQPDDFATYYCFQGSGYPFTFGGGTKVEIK
Sequence of MEDI-524 Fab (P01857 with tags, fused parts or gaps limits assumed, other chains not shown): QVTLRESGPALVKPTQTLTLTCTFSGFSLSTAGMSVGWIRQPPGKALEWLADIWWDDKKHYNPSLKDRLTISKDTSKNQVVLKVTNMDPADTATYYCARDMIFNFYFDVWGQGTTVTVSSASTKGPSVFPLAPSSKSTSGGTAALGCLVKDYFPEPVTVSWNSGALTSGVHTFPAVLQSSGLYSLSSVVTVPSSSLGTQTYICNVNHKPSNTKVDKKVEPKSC

Row | Molecule | Kd (Numax™) | ka (Numax™) | kd (Numax™) | Ka (association constant) (MEDI-524 Fab) | ΔHbinding (MEDI-524 Fab) | ΔSbinding (MEDI-524 Fab) | Neutralization of RSV mutant [1, 2] | Neutraliz by antibody? [1, 3] | Neutraliz by antibody? [1, 4] | Neutraliz by antibody? [1, 5] | Neutraliz by antibody? [1, 6] | Neutraliz by antibody? [1, 7] | Neutraliz by antibody? [1, 8] | Neutraliz by antibody? ([1]; MARM #6, K272E, selection A4b4) | Neutraliz by antibody? [1, 9] | Neutraliz by antibody? [1, 10] | Neutraliz by antibody? [1, 11] | Neutraliz by antibody? [1, 12] | Neutraliz by antibody? [1, 13] | Neutraliz by antibody? [1, 14] | further results
1 | NSELLSLIHDMPITNDQKKLMSNNVQIVRQ [SEQ ID NO: 25] | 7.23 nM and 5.44 nM | 2.50E+05 and 3.62E+05 | 1.81E−03 and 1.97E−03 | 6.5e+06 M⁻¹ | -10.4 kcal/mol | −4.7 |  |  |  |  |  |  |  |  |  |  |  |  |  |  | 
2 | NSELLSLINDMPITNDQKKLMSNN(X-orn)C [SEQ ID NO: 24] | 2.29 nM | 1.06E+05 | 2.42E−04 | 1.3e+07 M⁻¹ | -12.8 kcal/mol | −11.4 |  |  |  |  |  |  |  |  |  |  |  |  |  |  | 
3 | NSELLSLINDMPITNDQKKLMSNNC [SEQ ID NO: 27] | 20.4 nM | 2.70E+05 | 5.50E−03 |  |  |  |  |  |  |  |  |  |  |  |  |  |  |  |  |  | 
4 | STYMLTNSELLSLIHDMPITNDQKKLMSNN [SEQ ID NO: 26] | 22.7 nM | 2.43E+05 | 5.52E−03 | 7.1e+06 M⁻¹ | -11.4 kcal/mol | −8.1 |  |  |  |  |  |  |  |  |  |  |  |  |  |  | 
5 | Synagis ®: humanized RSV monoclonal antibody directed against the F glycoprotein of RSV [reference compound] |  |  |  |  |  |  | longer neutralized RSV | No | No | No | No | No | No | No | No | No | No | No | No | No | Neutraliz by antibody? [1, 15]: No; Neutralization of RSV mutant [1, 16]: eliminate the ability; Neutralization of RSV mutant (RSV B9320 strain mutants; [17]): lost its ability to neutralize RSV; Neutralization of RSV mutant (RSV B9320 strain mutants; double mutation K272Q + N262K): lost their ability to neutralize
6 | B1 |  |  |  |  |  |  | longer neutralized RSV | Yes at higher | Yes at higher | Yes at higher | Yes at higher | No | No | No | No | No | Yes | Yes | Yes | Yes | Kd (RSV F protein): 0.004 nM; ka (RSV F protein): 4.70E+05; kd (RSV F protein): 1.88E−06; Neutraliz by antibody? [1, 15]: No; Neutralization of RSV mutant [1, 16]: retain its ability to neutralize; Neutralization of RSV mutant (RSV B9320 strain mutants; [17]): retain its ability to neutralize RSV at higher concentration; Neutralization of RSV mutant (RSV B9320 strain mutants; double mutation K272Q + N262K): lost their ability to neutralize; Neutralization of RSV mutant (RSV B9320 strain mutants; single mutant K272Q): did not knock out
